Measured values published in patent US20230008317A1, “Z-STILBENE AMPK ACTIVATOR COMPOUNDS, COMPOSITIONS, METHODS AND USES THEREOF” (SOCIETE DES PRODUITS NESTLE S.A., priority 2019, published 2023).

Assays:
AMPKα2β1γ1 = target: T1, AMPKα2β1γ1 (Homo sapiens, UniProt P54619+P54646+Q9Y478); assay: HTRF KinEASE activation assay with bacterially-expressed, phosphorylated purified AMPKα2β1γ1 complex; type: biochemical; settings: varying concentrations, 30 mins incubation, cell-free; FIG. 1
T1 construct: His; made in house
T1 sequence (P54646 whole entry): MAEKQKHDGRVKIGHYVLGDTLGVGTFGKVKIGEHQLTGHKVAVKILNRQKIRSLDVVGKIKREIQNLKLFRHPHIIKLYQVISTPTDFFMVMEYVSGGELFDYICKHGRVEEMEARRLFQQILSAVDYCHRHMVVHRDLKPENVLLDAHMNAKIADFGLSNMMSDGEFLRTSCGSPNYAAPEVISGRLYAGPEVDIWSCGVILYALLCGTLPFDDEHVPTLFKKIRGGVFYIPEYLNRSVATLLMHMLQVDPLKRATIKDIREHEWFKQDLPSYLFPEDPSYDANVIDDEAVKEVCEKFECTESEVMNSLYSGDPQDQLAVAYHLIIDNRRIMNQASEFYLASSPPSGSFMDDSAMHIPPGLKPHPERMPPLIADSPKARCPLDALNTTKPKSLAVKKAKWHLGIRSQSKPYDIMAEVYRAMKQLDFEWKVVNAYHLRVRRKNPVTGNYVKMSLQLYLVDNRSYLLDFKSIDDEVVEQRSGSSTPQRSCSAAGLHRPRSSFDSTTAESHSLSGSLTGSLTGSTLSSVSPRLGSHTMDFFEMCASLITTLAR
T1 sequence (Q9Y478 whole entry): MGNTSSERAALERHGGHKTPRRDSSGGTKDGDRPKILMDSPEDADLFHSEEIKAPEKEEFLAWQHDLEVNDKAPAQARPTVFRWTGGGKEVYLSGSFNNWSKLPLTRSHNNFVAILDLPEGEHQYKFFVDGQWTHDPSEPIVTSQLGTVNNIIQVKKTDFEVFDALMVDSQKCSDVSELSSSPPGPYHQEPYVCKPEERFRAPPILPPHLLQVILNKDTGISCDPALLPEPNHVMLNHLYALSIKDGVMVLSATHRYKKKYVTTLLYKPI
T1 sequence (P54619 whole entry): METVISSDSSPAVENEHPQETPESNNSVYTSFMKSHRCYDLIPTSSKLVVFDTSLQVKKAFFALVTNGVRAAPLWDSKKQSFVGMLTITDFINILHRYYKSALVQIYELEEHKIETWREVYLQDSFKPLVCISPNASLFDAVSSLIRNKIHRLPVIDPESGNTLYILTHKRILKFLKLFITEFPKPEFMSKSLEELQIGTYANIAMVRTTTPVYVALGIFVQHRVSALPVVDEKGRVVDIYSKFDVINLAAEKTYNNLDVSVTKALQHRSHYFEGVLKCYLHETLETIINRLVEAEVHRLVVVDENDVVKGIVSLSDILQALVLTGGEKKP
Procedure: Varying concentrations of compound 1 was incubated with phosphorylated purified AMPK α2β1γ1 for 30 mins. AMPK activity was determined using the HTRF KinEASE assay kit and results are presented as the ratio of 665/620 nm (STK1 phosphorylation).
The AMPKα2β1γ1 complex was expressed in bacteria and purified through the His-α subunit by nickel purification, purified through gel filtration and phosphorylated by incubation with CaMKKβ, and then further purified through a final gel filtration purification step. Phosphorylated purified AMPK was incubated with varying concentrations of ligand for 30 mins along with substrate and reagents from the HTRF-KinEASE Cisbio assay kit (STK S1 Kit). Phosphorylation of the substrate was measured by incubating with donor and acceptor antibodies for 2 h at room temperature as per the manufacturer's protocol (and Coulerie et al., (2016), see below) and phosphorylated peptide detected by performing HTRF.

[1] = tested on: U-2 OS Flp-In T-REx cells (phosphorylation of acetyl-CoA carboxylase, ACC); assay: pACC HTRF assay: phosphorylation of the AMPK substrate ACC in U-2 OS Flp-In T-REx cells; type: cell-based; settings: varying concentrations, 30 mins at 37 C, media lacking FBS; FIG. 2
Procedure: U-2 OS cells were treated with varying concentrations of compound 1 for 30 mins at 37 C. Phosphorylation of ACC was assessed using the HTRF Cisbio (pACC kit).
U-2 OS Flp-In T-REx cells were seeded at 50 K in a 96-well plate and left overnight at 37 C in DMEM GlutaMAX (Thermo Fisher Scientific) supplemented with 10% (vol/vol) FBS and 100 U/ml penicillin G, and 100 μg/ml streptomycin. Cells were treated for 30 mins with varying concentrations of compound 1 in media lacking FBS and then cells were lysed in 50 μl of Cisbio lysis buffer #1 supplemented with blocking solution as per the manufacturer's protocol (Cisbio). Cells were lysed for 30 mins at room temperature before 16 μl of lysate was incubated with 4 μl of the HTRF antibodies (1:40 dilution of the acceptor and donor (p)ACC antibodies, as per the manufacturers protocol). Lysates were incubated overnight with the antibodies before 665 nm/620 nm ratio was determined using a MolecularDevices i3 plate reader (with a HTRF cartridge add-on). The results are plotted as fold activation compared to the respective AMPK complex without any compound.

SMILES: COc1cc(O)cc(/C=C\c2cccc(O)c2)c1 [compound 1, (Z)-3,3′-Dihydroxy-5-methoxystilbene]
- AMPK activity (STK1 substrate phosphorylation, 665 nm/620 nm ratio) (AMPKα2β1γ1): allosterically activates AMPKα2β1γ1
- Phosphorylation of ACC (fold activation relative to untreated cells) [1]: increased the phosphorylation of the AMPK substrate, ACC, in a dose-dependent manner
